The text below walks through data of PubChem BioAssay AID686917 (Sanford-Burnham Center for Chemical Genomics, 2013).

Several values for one entry are separate records, joined by “and”; a condition that tells them apart may be missing. Equal entries are not always repeated. Activity calls are given as the source filed them.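 How the source made its calls: active means IC50 at or below 100 µM in the confirmatory dose response; inactive means the rest.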

The target in the assay is 26S proteasome non-ATPase regulatory subunit 14 (Homo sapiens) (UniProt O00487). Kind of assay: Rpn11 (PSMD14) deubiquitinase inhibitors, dose response, biochemical, fluorescence polarization, human 26S proteasome, uHTS hits (AID 686917). As to conditions: purified human 26S proteasome, Ub4-pepOG fluorescence polarization.
Chain of 26S proteasome non-ATPase regulatory subunit 14 (Homo sapiens) (O00487 whole entry, looked up): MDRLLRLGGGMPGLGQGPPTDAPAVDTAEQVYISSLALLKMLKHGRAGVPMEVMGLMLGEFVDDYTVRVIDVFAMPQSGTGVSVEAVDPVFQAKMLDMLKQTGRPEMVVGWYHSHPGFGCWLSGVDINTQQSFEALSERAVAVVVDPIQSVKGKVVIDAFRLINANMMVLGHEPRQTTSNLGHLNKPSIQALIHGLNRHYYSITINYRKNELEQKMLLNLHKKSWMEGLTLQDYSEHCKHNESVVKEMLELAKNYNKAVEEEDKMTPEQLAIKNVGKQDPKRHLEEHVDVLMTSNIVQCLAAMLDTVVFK
Consider `CC(C)(C)OC(=O)CCNC(=O)c1cnc2c(SSc3cccc4cc(C(=O)NCCC(=O)OC(C)(C)C)cnc34)cccc2c1`, for which the 50% inhibitory concentration (IC50) (in general, the point on the concentration scale where inhibition reaches its midpoint) was 4.9 µM. For `O=C(Sc1cccc2cccnc12)c1cccc(Cl)c1` the value was 1.18 µM; for `Cc1ccc(C(=O)Sc2cccc3cccnc23)cc1`, 14.6 µM; for `COc1ccccc1C(=O)Sc1cccc2cccnc12`, 4.59 µM and 2.1 µM.

In the case of `Cc1ccccc1C(=O)Sc1cccc2cccnc12`, the IC50 was 11 µM.

`COc1ccc(C(=O)Sc2cccc3cccnc23)cc1`: the IC50 was 4.37 µM. For `O=C(Sc1cccc2cccnc12)c1cccc2ccccc12` the value was 3.97 µM. For `N#Cc1cccc(C(=O)Sc2cccc3cccnc23)c1` the value was 15.8 µM; for `COc1ccc(C(=O)Sc2cccc3cccnc23)cc1OC`, 9.19 µM; for `O=C(Sc1cccc2cccnc12)c1ccc2c(c1)OCO2`, 14 µM. `O=C(O)[C@@H]1CCCN1C(=O)c1cnc2c(SSc3cccc4cc(C(=O)N5CCC[C@H]5C(=O)O)cnc34)cccc2c1`: the IC50 is 1.7 µM. On to `O=C(Sc1cccc2cccnc12)c1ccccc1[N+](=O)[O-]`, for which the IC50 is 5.27 µM. For `CC[C@@H](C)[C@H](NC(=O)c1cnc2c(SSc3cccc4cc(C(=O)N[C@H](C(=O)OC)[C@@H](C)CC)cnc34)cccc2c1)C(=O)OC` the value was 1.77 µM.

With `COC(=O)[C@@H]1CCCN1C(=O)c1cnc2c(SSc3cccc4cc(C(=O)N5CCC[C@H]5C(=O)OC)cnc34)cccc2c1`, the IC50 was 3.42 µM. As for `N#Cc1ccc(C(=O)Sc2cccc3cccnc23)cc1`, the IC50 was > 99 µM (inactive). For `COc1cccc(C(=O)Sc2cccc3cccnc23)c1` the value was 1.49 µM; for `COC(=O)[C@H](CC(C)C)NC(=O)c1cnc2c(SSc3cccc4cc(C(=O)N[C@@H](CC(C)C)C(=O)OC)cnc34)cccc2c1`, 5.32 µM; for `O=C(Sc1cccc2cccnc12)c1ccc(F)cc1`, 5.35 µM. As for `O=C(Sc1cccc2cccnc12)c1ccc([N+](=O)[O-])cc1`, the IC50 is 10 µM. For `COC(=O)[C@@H](NC(=O)c1cnc2c(SSc3cccc4cc(C(=O)N[C@H](C(=O)OC)C(C)C)cnc34)cccc2c1)C(C)C` the value was 4 µM; for `O=C(Sc1cccc2cccnc12)c1ccc(C(F)(F)F)cc1`, 3.73 µM. Take `Cc1cccc(C(=O)Sc2cccc3cccnc23)c1`: the IC50 was 1.27 µM. For `COC(=O)[C@H](CO)NC(=O)c1cnc2c(SSc3cccc4cc(C(=O)N[C@@H](CO)C(=O)OC)cnc34)cccc2c1` the value was 4.86 µM; for `O=C(Sc1cccc2cccnc12)c1ccc(F)cc1F`, 9.67 µM; for `O=C(Sc1cccc2cccnc12)c1ccccc1`, 5.21 µM. For `COC(=O)[C@H](C)N(C)C(=O)c1cnc2c(SSc3cccc4cc(C(=O)N(C)[C@@H](C)C(=O)OC)cnc34)cccc2c1` the value was 4.31 µM; for `O=C(Sc1cccc2cccnc12)C1CCCCC1`, 0.663 µM; for `COC(=O)[C@H](C)NC(=O)c1cnc2c(SSc3cccc4cc(C(=O)N[C@@H](C)C(=O)OC)cnc34)cccc2c1`, 5.01 µM. For `O=C(Sc1cccc2cccnc12)c1c(Cl)cccc1Cl` the value was 1.48 µM. In the case of `C[C@@H](C(=O)O)N(C)C(=O)c1cnc2c(SSc3cccc4cc(C(=O)N(C)[C@@H](C)C(=O)O)cnc34)cccc2c1`, the concentration for half-maximal inhibition (IC50) was 5.84 µM.

As for `COc1ccc(C(=O)Sc2cccc3cccnc23)cc1F`, the IC50 is 3.54 µM. For `COC(=O)c1cnc2c(SSc3cccc4cc(C(=O)OC)cnc34)cccc2c1` the value was 3.4 µM. For `CCOc1ccccc1C(=O)Sc1cccc2cccnc12` the value was 3.7 µM and 14.4 µM. For `O=C(Sc1cccc2cccnc12)c1cccc(C(F)(F)F)c1` the value was 8.43 µM. `O=C(Sc1cccc2cccnc12)c1ccccc1F`: the IC50 is > 99 µM (inactive). For `CC(C)C[C@H](NC(=O)c1cnc2c(SSc3cccc4cc(C(=O)N[C@@H](CC(C)C)C(=O)O)cnc34)cccc2c1)C(=O)O` the value was 2.54 µM; for `O=C(O)c1cnc2c(SSc3cccc4cc(C(=O)O)cnc34)cccc2c1`, 1.26 µM. For `CCCc1ccc(C(=O)Sc2cccc3cccnc23)cc1` the value was 2.66 µM; for `COC(=O)C[C@H](NC(=O)c1cnc2c(SSc3cccc4cc(C(=O)N[C@@H](CC(=O)OC)C(=O)OC)cnc34)cccc2c1)C(=O)OC`, 3.43 µM. Consider `O=C(Sc1cccc2cccnc12)c1ccccc1I`, for which the IC50 is 2.18 µM.

With `CC[C@@H](C)[C@H](NC(=O)c1cnc2c(SSc3cccc4cc(C(=O)N[C@H](C(=O)O)[C@H](C)CC)cnc34)cccc2c1)C(=O)O`, the half-maximal inhibitory concentration (IC50) is 1.8 µM. For `O=C(Sc1cccc2cccnc12)c1ccc(F)c(F)c1` the value was 3.69 µM; for `O=C(Sc1cccc2cccnc12)c1ccccc1Br`, 3.83 µM; for `O=C(Sc1cccc2cccnc12)c1ccccc1OC(F)(F)F`, 4.12 µM. With `CC(C)Cc1ccc(C(=O)Sc2cccc3cccnc23)cc1`, the IC50 is 2.46 µM. For `COC(=O)[C@H](C)NC(=O)c1ccnc2c(SSc3cccc4c(C(=O)N[C@@H](C)C(=O)OC)ccnc34)cccc12` the value was 4.36 µM; for `O=C(Sc1cccc2cccnc12)c1ccccc1Cl`, 5.81 µM.
